Experimental data as given in BindingDB's records for PubMed 9454827 (Sibia Neurosciences, 1998).

Columns and labels:
[1] = target: Neuronal acetylcholine receptor subunit alpha-2 (Homo sapiens, UniProt Q15822)
[2] = target: Neuronal acetylcholine receptor subunit alpha-3 (Homo sapiens, UniProt P32297)
[3] = target: Neuronal acetylcholine receptor subunit alpha-4 (Homo sapiens, UniProt P43681)
Chain of Neuronal acetylcholine receptor subunit alpha-4 (P43681 whole entry): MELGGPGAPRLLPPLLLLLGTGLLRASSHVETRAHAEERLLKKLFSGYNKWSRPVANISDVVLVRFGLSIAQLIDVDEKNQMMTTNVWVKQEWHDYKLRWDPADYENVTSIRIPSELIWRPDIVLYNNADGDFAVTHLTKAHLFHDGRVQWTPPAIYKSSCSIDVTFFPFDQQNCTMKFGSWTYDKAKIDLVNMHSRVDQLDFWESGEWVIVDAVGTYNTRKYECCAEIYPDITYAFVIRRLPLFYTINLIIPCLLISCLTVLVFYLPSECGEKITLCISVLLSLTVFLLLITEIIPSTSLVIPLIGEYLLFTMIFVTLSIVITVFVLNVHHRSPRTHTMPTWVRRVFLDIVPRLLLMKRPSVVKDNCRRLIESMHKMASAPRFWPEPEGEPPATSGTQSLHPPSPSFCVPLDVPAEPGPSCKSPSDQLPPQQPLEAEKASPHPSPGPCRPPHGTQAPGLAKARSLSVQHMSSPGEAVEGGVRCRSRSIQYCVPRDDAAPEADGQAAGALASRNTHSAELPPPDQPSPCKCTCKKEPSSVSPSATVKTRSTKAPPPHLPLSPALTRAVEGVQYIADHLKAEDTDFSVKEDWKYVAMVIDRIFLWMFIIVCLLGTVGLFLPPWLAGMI

Chain of Neuronal acetylcholine receptor subunit alpha-3 (P32297 whole entry): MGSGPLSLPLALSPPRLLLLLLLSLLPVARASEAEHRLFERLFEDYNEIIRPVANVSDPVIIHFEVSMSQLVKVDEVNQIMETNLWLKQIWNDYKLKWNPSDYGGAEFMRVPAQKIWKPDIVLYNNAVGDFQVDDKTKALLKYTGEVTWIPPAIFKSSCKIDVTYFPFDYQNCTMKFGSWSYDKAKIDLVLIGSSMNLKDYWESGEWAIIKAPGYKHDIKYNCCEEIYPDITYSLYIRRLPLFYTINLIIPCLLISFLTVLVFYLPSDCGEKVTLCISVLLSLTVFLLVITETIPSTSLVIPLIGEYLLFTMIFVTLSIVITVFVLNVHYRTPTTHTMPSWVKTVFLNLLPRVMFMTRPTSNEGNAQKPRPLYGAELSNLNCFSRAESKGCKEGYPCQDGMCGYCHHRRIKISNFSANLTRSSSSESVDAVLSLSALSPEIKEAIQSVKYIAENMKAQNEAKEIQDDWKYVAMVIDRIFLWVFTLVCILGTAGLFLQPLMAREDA
Chain of Neuronal acetylcholine receptor subunit alpha-2 (Q15822 whole entry): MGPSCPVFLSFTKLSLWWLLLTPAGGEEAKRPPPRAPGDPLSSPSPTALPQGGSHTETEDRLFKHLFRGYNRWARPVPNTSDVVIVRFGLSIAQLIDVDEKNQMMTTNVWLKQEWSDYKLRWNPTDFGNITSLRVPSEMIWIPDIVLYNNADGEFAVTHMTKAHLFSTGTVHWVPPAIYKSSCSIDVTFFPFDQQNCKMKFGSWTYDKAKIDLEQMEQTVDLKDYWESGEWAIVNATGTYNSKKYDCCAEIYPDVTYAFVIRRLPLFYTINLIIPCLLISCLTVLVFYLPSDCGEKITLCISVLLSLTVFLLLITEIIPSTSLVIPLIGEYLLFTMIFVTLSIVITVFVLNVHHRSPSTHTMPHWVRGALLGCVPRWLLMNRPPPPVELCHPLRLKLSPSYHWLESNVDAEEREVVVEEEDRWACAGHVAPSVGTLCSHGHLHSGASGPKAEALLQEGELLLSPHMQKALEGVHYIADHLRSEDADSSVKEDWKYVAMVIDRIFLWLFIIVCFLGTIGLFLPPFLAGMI

Row | SMILES | Ki [1] [µM] | Ki [2] [µM] | Ki [3] [µM]
1 | CO[C@@H]1CC=C2CCN3CCC4=C(CC(=O)OC4)[C@@]23C1 | 5.09 |  | 
2 | O=c1cccc2n1C[C@H]1CNC[C@H]2C1 [(1S,9R)-7,11-diazatricyclo[7.3.1.0~2,7~]trideca-2,4-dien-6-one] |  | > 10 | 0.515
3 | CN1CCC[C@H]1c1cccnc1 [(R,S)-nicotine] | 9.9 |  | 
4 | COc1cc2c3cc1Oc1cc(ccc1O)C[C@H]1c4c(cc(OC)c(O)c4Oc4ccc(cc4)C[C@@H]3N(C)CC2)CC[N+]1(C)C [CAS_57-94-3] | 2.26 | 0.73 | 0.86
5 | C[N+]1(C)CCN(c2ccccc2)CC1 [DMPP] | > 10 | > 10 | > 10
6 | CNC1(C)C2CCC(C2)C1(C)C (stereo not given) [Methyl-(2,3,3-trimethyl-bicyclo[2.2.1]hept-2-yl)-amine(Mecamylamine)] | 3.06 |  | 0.56
7 | C[N+](C)(C)CCOC(=O)CCCCCCC(=O)OCC[N+](C)(C)C [NSC_123990] | 8.75 | > 10 | 1.12
